What was measured:
[1] = target: T1, JAK3 (Homo sapiens, UniProt P52333); assay: Kinobeads assay, JAK3; assay type: binding; conditions: mixed Molt4/Ramos cell lysate, dot blot detection
T1 construct: endogenous in cells; host or cells: Mixed Molt4/Ramos lysate (1:2)
T1 sequence (P52333 1-1124): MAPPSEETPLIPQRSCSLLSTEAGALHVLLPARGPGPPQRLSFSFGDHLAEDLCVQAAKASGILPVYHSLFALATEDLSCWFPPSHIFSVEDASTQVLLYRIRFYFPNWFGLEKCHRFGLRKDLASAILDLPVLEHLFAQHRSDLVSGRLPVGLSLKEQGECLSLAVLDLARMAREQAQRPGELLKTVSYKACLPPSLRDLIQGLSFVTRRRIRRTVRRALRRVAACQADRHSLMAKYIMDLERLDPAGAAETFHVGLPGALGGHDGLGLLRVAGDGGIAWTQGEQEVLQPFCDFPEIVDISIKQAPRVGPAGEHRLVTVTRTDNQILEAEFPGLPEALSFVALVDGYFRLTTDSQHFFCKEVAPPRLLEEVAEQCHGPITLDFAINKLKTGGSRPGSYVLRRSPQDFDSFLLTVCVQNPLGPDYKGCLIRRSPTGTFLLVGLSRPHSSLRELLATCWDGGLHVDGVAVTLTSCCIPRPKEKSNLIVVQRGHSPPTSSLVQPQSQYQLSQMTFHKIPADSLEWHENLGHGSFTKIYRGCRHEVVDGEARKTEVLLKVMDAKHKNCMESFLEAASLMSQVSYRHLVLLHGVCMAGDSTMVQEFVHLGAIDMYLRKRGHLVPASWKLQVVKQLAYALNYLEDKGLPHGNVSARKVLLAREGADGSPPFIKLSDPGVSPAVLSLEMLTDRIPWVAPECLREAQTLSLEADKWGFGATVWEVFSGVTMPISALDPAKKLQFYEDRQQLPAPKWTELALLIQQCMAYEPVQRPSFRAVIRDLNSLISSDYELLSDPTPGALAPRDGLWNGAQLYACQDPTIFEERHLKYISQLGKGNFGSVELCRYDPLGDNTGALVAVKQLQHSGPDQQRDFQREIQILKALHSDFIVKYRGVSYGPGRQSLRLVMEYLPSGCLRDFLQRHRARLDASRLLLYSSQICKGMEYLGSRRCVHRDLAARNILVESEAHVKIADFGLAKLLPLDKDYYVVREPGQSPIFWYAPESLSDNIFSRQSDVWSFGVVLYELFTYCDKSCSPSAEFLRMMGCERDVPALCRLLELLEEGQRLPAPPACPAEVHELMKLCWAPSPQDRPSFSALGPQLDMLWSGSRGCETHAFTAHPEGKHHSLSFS
Experimental: (§1) The compounds of the present invention as described in the previous examples were tested in a Kinobeads™ assay as described for ZAP-70 (WO-A 2007/137867). Briefly, test compounds (at various concentrations) and the affinity matrix with the immobilized aminopyrido-pyrimidine ligand 24 were added to cell lysate aliquots and allowed to bind to the proteins in the lysate sample. After the incubation time the beads with captured proteins were separated from the lysate. Bound proteins were then eluted and the presence of JAK2 and JAK3 was detected and quantified using specific antibodies in a dot blot procedure and the Odyssey infrared detection system. Dose response curves for individual kinases were generated and IC50 values calculated. Kinobeads™ assays for ZAP-70 (WO-A 2007/137867) and for kinase selectivity profiling (WO-A 2006/134056) have been previously described.
(§2) The affinity matrix was washed two times with 15 mL of 1×DP buffer containing 0.2% NP40 (IGEPAL® CA-630, Sigma, #13021) and then resuspended in 1×DP buffer containing 0.2% NP40 (3% beads slurry).
(§3) 5×DP buffer: 250 mM Tris-HCl pH 7.4, 25% Glycerol, 7.5 mM MgCl2, 750 mM NaCl, 5 mM Na3VO4; filter the 5×DP buffer through a 0.22 μm filter and store in aliquots at −80° C. The 5×DP buffer is diluted with H2O to 1×DP buffer containing 1 mM DTT and 25 mM NaF.
(§4) Stock solutions of test compounds were prepared in DMSO. In a 96 well plate 30 μL solution of diluted test compounds at 5 mM in DMSO were prepared. Starting with this solution a 1:3 dilution series (9 steps) was prepared. For control experiments (no test compound) a buffer containing 2% DMSO was used.
(§5) Molt4 cells (ATCC catalogue number CRL-1582) and Ramos cells (ATCC catalogue number CRL-1596) were grown in 1 L Spinner flasks (Integra Biosciences, #182101) in suspension in RPMI 1640 medium (Invitrogen, #21875-034) supplemented with 10% Fetal Bovine Serum (Invitrogen) at a density between 0.15×10^6 and 1.2×10^6 cells/mL. Cells were harvested by centrifugation, washed once with 1×PBS buffer (Invitrogen, #14190-094) and cell pellets were frozen in liquid nitrogen and subsequently stored at −80° C. Cells were homogenized in a Potter S homogenizer in lysis buffer: 50 mM Tris-HCl, 0.8% NP40, 5% glycerol, 150 mM NaCl, 1.5 mM MgCl2, 25 mM NaF, 1 mM sodium vanadate, 1 mM DTT, pH 7.5. One complete EDTA-free tablet (protease inhibitor cocktail, Roche Diagnostics, 1873580) per 25 mL buffer was added. The material was dounced 10 times using a mechanized POTTER S, transferred to 50 mL falcon tubes, incubated for 30 minutes on ice and spun down for 10 minutes at 20,000 g at 4° C. (10,000 rpm in Sorvall SLA600, precooled). The supernatant was transferred to an ultracentrifuge (UZ)-polycarbonate tube (Beckmann, 355654) and spun for 1 hour at 100.000 g at 4° C. (33.500 rpm in Ti50.2, precooled). The supernatant was transferred again to a fresh 50 mL falcon tube, the protein concentration was determined by a Bradford assay (BioRad) and samples containing 50 mg of protein per aliquot were prepared. The samples were immediately used for experiments or frozen in liquid nitrogen and stored frozen at −80° C.
(§6) Cell lysate (approximately 50 mg protein per plate) was thawed in a water bath at room temperature and then stored on ice. To the thawed cell lysate 1×DP 0.8% NP40 buffer containing protease inhibitors (1 tablet for 25 mL buffer; EDTA-free protease inhibitor cocktail; Roche Diagnostics 1873580) was added in order to reach a final protein concentration of 10 mg/mL total protein. The diluted cell lysate was stored on ice. Mixed Molt4/Ramos lysate was prepared by combining one volume of Molt4 lysate and two volumes of Ramos lysate (ratio 1:2).
(§7) To a 96 well filter plate (Multiscreen HTS, BV Filter Plates, Millipore #MSBVN1250) were added per well: 100 μL affinity matrix (3% beads slurry), […], of compound solution, and 50 μL of diluted lysate. […]

[2] = target: T2, JAK2 (Homo sapiens, UniProt O60674); assay: Kinobeads assay, JAK2; assay type: binding; conditions: mixed Molt4/Ramos cell lysate, dot blot detection
T2 construct: endogenous in cells; host or cells: Mixed Molt4/Ramos lysate (1:2)
Experimental: as §1, §2, §3, §4, §5, §6, §7

T2 sequence (O60674 whole entry): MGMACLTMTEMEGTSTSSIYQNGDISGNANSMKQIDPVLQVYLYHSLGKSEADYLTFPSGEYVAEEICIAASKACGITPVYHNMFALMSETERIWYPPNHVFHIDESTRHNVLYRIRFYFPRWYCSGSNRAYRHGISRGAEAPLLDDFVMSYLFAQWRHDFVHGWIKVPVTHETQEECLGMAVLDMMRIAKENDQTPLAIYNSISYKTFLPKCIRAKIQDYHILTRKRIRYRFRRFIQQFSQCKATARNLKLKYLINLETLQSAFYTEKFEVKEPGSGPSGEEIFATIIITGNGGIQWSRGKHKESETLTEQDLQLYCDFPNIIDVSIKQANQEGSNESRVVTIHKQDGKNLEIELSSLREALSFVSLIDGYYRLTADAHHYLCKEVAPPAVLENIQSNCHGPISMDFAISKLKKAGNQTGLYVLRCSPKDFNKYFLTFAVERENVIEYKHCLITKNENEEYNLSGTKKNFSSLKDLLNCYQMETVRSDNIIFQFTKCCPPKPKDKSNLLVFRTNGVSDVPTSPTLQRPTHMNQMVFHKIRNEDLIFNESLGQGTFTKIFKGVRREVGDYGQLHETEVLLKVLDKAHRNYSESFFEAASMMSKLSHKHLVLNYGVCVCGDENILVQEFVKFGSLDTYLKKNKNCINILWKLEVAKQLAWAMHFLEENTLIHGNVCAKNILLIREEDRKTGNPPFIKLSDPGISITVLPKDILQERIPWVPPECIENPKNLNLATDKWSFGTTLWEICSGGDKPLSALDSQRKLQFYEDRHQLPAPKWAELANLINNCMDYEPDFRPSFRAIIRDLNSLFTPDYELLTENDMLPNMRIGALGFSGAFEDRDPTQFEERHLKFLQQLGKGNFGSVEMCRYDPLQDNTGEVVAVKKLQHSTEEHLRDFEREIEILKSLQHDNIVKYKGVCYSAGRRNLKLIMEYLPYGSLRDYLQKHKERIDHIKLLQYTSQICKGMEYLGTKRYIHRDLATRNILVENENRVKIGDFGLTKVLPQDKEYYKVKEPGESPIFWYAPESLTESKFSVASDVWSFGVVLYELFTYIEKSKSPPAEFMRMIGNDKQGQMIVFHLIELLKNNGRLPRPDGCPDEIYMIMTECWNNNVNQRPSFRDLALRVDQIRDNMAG

`COCCCOc1cccc(Cn2ncc3cnc(Nc4cnn(C)c4)nc32)c1` [Example 169, 1-(3-(3-Methoxypropoxy)benzyl)-N-(1-methyl-1H-pyrazol-4-yl)-1H-pyrazolo[3,4-d]pyrimidin-6-amine] was tested, and the IC50 [1] was 0.1 to 1 µM and the IC50 [2] was no less than 10 µM.
`OCCn1cc(Nc2ncc3cnn(Cc4cc(F)ccc4F)c3n2)cn1` [Example 32, 2-(4-(1-(2,5-Difluorobenzyl)-1H-pyrazolo[3,4-d]pyrimidin-6-ylamino)-1H-pyrazol-1-yl)ethanol] showed an IC50 [1] of less than 0.1 µM and an IC50 [2] of less than 0.1 µM.
Work on `CC(C)n1ccc(Nc2ncc3cnn(Cc4ccccc4C#N)c3n2)n1` [Example 19, 2-((6-(1-Isopropyl-1H-pyrazol-3-ylamino)-1H-pyrazolo[3,4-d]pyrimidin-1-yl)methyl)benzonitrile] yielded an IC50 [1] of 1 to 10 µM and an IC50 [2] of no less than 10 µM.
With `Cn1cc(Nc2ncc3cnn(Cc4cccc5c4OCCO5)c3n2)cn1` [Example 229, 1-((2,3-Dihydrobenzo[b][1,4]dioxin-5-yl)methyl)-N-(1-methyl-1H-pyrazol-4-yl)-1H-pyrazolo[3,4-d]pyrimidin-6-amine] the IC50 [1] was less than 0.1 µM and the IC50 [2] was 0.1 to 1 µM.
For `C[C@@H]1CN(c2cccc(Cn3ncc4cnc(Nc5cnn(C)c5)nc43)c2)C[C@H](C)O1` [Example 175, 1-(3-((2S,6R)-2,6-Dimethylmorpholino)benzyl)-N-(1-methyl-1H-pyrazol-4-yl)-1H-pyrazolo[3,4-d]pyrimidin-6-amine], the IC50 [1] was 0.1 to 1 µM and the IC50 [2] was no less than 10 µM.
`Cn1cc(Nc2ncc3cnn(Cc4cccnc4F)c3n2)cn1` [Example 45, 1-((2-Fluoropyridin-3-yl)methyl)-N-(1-methyl-1H-pyrazol-4-yl)-1H-pyrazolo[3,4-d]pyrimidin-6-amine] showed an IC50 [1] of less than 0.1 µM and an IC50 [2] of 1 to 10 µM.
`Cn1cc(Nc2ncc3cnn(Cc4ccccc4NS(C)(=O)=O)c3n2)cn1` [Example 75, N-(2-((6-((1-Methyl-1H-pyrazol-4-yl)amino)-1H-pyrazolo[3,4-d]pyrimidin-1-yl)methyl)phenyl)methanesulfonamide] was tested, and the IC50 [1] was less than 0.1 µM and the IC50 [2] was 0.1 to 1 µM.
Molecule `COc1ccc(F)c(Cn2ncc3cnc(Nc4cnn(C)c4)nc32)c1F` [Example 159, 1-(2,6-Difluoro-3-methoxybenzyl)-N-(1-methyl-1H-pyrazol-4-yl)-1H-pyrazolo[3,4-d]pyrimidin-6-amine] has an IC50 [1] of less than 0.1 µM and an IC50 [2] of 1 to 10 µM.
For `CN(C)CCCn1cc(Nc2ncc3cnn(Cc4ccccc4F)c3n2)cn1` [Example 125, N-(1-(3-(Dimethylamino)propyl)-1H-pyrazol-4-yl)-1-(2-fluorobenzyl)-1H-pyrazolo[3,4-d]pyrimidin-6-amine], the IC50 [1] was less than 0.1 µM and the IC50 [2] was 0.1 to 1 µM.
`FC(F)Cn1cc(Nc2ncc3cnn(Cc4ccccc4C4CC4)c3n2)cn1` [Example 161, 1-(2-Cyclopropylbenzyl)-N-(1-(2,2-difluoroethyl)-1H-pyrazol-4-yl)-1H-pyrazolo[3,4-d]pyrimidin-6-amine] showed an IC50 [1] of 0.1 to 1 µM and an IC50 [2] of 1 to 10 µM.
For `CC(c1ccccc1F)n1ncc2cnc(Nc3cnn(C)c3)nc21` (centres unmarked) [Example 26, 1-(1-(2-Fluorophenyl)ethyl)-N-(1-methyl-1H-pyrazol-4-yl)-1H-pyrazolo[3,4-d]pyrimidin-6-amine], the IC50 [1] was 0.1 to 1 µM and the IC50 [2] was no less than 10 µM.
With `Cn1cc(Nc2ncc3cnn(CCc4cccc(F)c4)c3n2)cn1` [Example 81, 1-(3-Fluorophenethyl)-N-(1-methyl-1H-pyrazol-4-yl)-1H-pyrazolo[3,4-d]pyrimidin-6-amine] the IC50 [1] was 0.1 to 1 µM and the IC50 [2] was 1 to 10 µM.
In the case of `Cn1cc(Nc2ncc3cnn(Cc4ccccc4OCCOCc4ccccc4)c3n2)cn1` [Example 221, 1-(2-(2-(Benzyloxy)ethoxy)benzyl)-N-(1-methyl-1H-pyrazol-4-yl)-1H-pyrazolo[3,4-d]pyrimidin-6-amine], the IC50 [1] is reported as 0.1 to 1 µM and the IC50 [2] is reported as 1 to 10 µM.
`Fc1ccccc1Cn1ncc2cnc(Nc3cnn(CCCN4CCCCC4)c3)nc21` [Example 144, 1-(2-Fluorobenzyl)-N-(1-(3-(piperidin-1-yl)propyl)-1H-pyrazol-4-yl)-1H-pyrazolo[3,4-d]pyrimidin-6-amine] gave an IC50 [1] of less than 0.1 µM and an IC50 [2] of 0.1 to 1 µM.
Molecule `Cn1cc(Nc2ncc3cnn(Cc4cccc(OCCOCc5ccccc5)c4)c3n2)cn1` [Example 222, 1-(3-(2-(Benzyloxy)ethoxy)benzyl)-N-(1-methyl-1H-pyrazol-4-yl)-1H-pyrazolo[3,4-d]pyrimidin-6-amine] has an IC50 [1] of 0.1 to 1 µM and an IC50 [2] of no less than 10 µM.
`Cn1cc(Nc2ncc3cnn(Cc4c(F)cccc4NS(C)(=O)=O)c3n2)cn1` [Example 142] showed an IC50 [1] of less than 0.1 µM and an IC50 [2] of 0.1 to 1 µM.
For `N#CCCn1cc(Nc2ncc3cnn(Cc4ccccc4C#N)c3n2)cn1` [Example 15, 2-((6-(1-(2-Cyanoethyl)-1H-pyrazol-4-ylamino)-1H-pyrazolo[3,4-d]pyrimidin-1-yl)methyl)benzonitrile], the IC50 [1] was less than 0.1 µM and the IC50 [2] was 1 to 10 µM.
With `Cn1cc(Nc2ncc3cnn(Cc4cccc(-c5ccncc5)c4)c3n2)cn1` [Example 230, N-(1-Methyl-1H-pyrazol-4-yl)-1-(3-(pyridin-4-yl)benzyl)-1H-pyrazolo[3,4-d]pyrimidin-6-amine] the IC50 [1] was less than 0.1 µM and the IC50 [2] was no less than 10 µM.
For `O=C(c1cccc(Cn2ncc3cnc(Nc4cnn(CCO)c4)nc32)c1F)N1CCOCC1` [Example 313, (2-Fluoro-3-((6-((1-(2-hydroxyethyl)-1H-pyrazol-4-yl)amino)-1H-pyrazolo[3,4-d]pyrimidin-1-yl)methyl)phenyl)(morpholino)methanone], the IC50 [2] was no less than 10 µM.
For `Cn1cc(Nc2ncc3cnn(Cc4cccc(N5CCOCC5)c4)c3n2)cn1` [Example 162, N-(1-Methyl-1H-pyrazol-4-yl)-1-(3-morpholinobenzyl)-1H-pyrazolo[3,4-d]pyrimidin-6-amine], the IC50 [2] was no less than 10 µM.

— patent publication US9242987B2, “Heterocyclyl pyrazolopyrimidine analogues as JAK inhibitors” (Cellzome Limited, priority 2009, dated 2016)
